{
  "source": "patent US20250027958A1",
  "about": "“DIAGNOSTIC AND THERAPEUTIC METHODS USING HEME AS A BIOMARKER FOR CELLULAR AND TISSUE DAMAGE” (Beth Israel Deaconess Medical Center, Inc., priority 2021, published 2025)",
  "test_system": "male C57BL/6 mice",
  "conditions": "DOX 20 mg/kg i.p., blood collected 1 hr later",
  "note": "“Also recorded” adds a separate entry of the source.",
  "method": "In brief, for the assessment of acute cytotoxicity, male C57BL/6 mice (10-12 weeks old) are administered HBI-002 (10 ml/kg, per os) or a control vehicle (10ml/kg, per os) at 0 hr and 1 hr, followed by administration of doxorubicin at 1.25 hr (20 mg/kg, intraperitoneal injection) and blood and tissue collection at 2.25 hr.\nMale C57BL/6 mice (10-12 weeks old) were administered HBI-002 (10 ml/kg, per os) or a control vehicle (10 ml/kg, per os) at 0 hr and 1 hr, followed by administration of DOX at 1.25 hr (20 mg/kg, intraperitoneal injection) and blood and tissue collection at 2.25 hr (FIG. 1).",
  "data": [
    {"compound": "COc1cccc2c1C(=O)c1c(O)c3c(c(O)c1C2=O)C[C@@](O)(C(=O)CO)C[C@@H]3O[C@H]1C[C@H](N)[C@H](O)[C@H](C)O1", "note": "[DOX, Doxorubicin]", "values": [
      {"measurement": "serum heme upon administration of DOX", "value": "significant increases in heme levels; also recorded: significant increase in serum heme"}
    ]}
  ]
}
